Assay results published in PMC12121777 (PLOS One, 2025).
pIC50: −log10 of the molar value. ≈ marks a conversion by molar mass, not a printed value. Like-named read-outs stand apart in the source and are kept apart here.

Assays:
[1] = system: Mycobacterium avium 330/88; test: MIC, micro method in Šula's semisynthetic medium, M. avium; format: cell-based
[2] = system: Mycobacterium kansasii 6509/96; test: MIC, micro method in Šula's semisynthetic medium, M. kansasii clinical isolate; format: cell-based; details: read-out: MIC M. kansasii 6509/96
Mtb 331/88 (i.e., H37Rv) = test: MIC, micro method in Šula's semisynthetic medium, drug-susceptible Mtb; format: cell-based, Mycobacterium tuberculosis; details: Mycobacterium tuberculosis, H37RV
HepG2 cells = test: Cytotoxicity on HepG2 cell line (CellTiter 96); format: cell-based, human; details: read-out: IC50 HepG2
[3] = 330/88, 336 h, read-out: MIC M. avium 330/88
[4] = 330/88, 504 h, read-out: MIC M. avium 330/88

Row | Structure (SMILES) | MIC [1, 3] [µM] | MIC [1, 4] [µM] | MIC ([2]; 6509/96, 168 h) [µM] | MIC ([2]; 6509/96, 336 h) [µM] | MIC ([2]; 6509/96, 504 h) [µM] | MIC (Mtb 331/88 (i.e., H37Rv); 336 h, 14 days) [µM] | MIC (Mtb 331/88 (i.e., H37Rv); 504 h, 21 days) [µM] | pIC50 (HepG2 cells; Homo sapiens, HepG2, 24 h) | pIC50 (HepG2 cells) | MIC ([1]; 330/88, 336 h, 14 days, * = growth still observed at this concentration, turbidity or precipitate above, read-out: MIC M. avium 330/88) [µM] | MIC ([1]; 330/88, 504 h, 21 days, * = growth still observed at this concentration, turbidity or precipitate above, read-out: MIC M. avium 330/88) [µM] | MIC ([2]; 6509/96, 168 h, 7 days) [µM] | MIC ([2]; 6509/96, 336 h, 14 days) [µM] | MIC ([2]; 6509/96, 504 h, 21 days) [µM] | pIC50 (HepG2 cells; Homo sapiens, HepG2, 24 h incubation) | MIC ([1]; 330/88, read-out: MIC M. avium) [µM]
1 | CCCCNc1nnc(-c2cc([N+](=O)[O-])cc([N+](=O)[O-])c2)o1 [Compound 5d, N-Butyl-5-(3,5-dinitrophenyl)-1,3,4-oxadiazol-2-amine] | 64 (≈ 19.7 µg/mL) | 125 (≈ 38.4 µg/mL) | 1 (≈ 0.307 µg/mL) | 2 (≈ 0.615 µg/mL) | 2 (≈ 0.615 µg/mL) | 0.5 (≈ 0.154 µg/mL) | 0.5 (≈ 0.154 µg/mL) | < 3.60 |  |  |  |  |  |  |  | 
2 | CCCCCCCCCCCCCCCNc1nnc(-c2cc([N+](=O)[O-])cc([N+](=O)[O-])c2)o1 [Compound 5o, 5-(3,5-Dinitrophenyl)-N-pentadecyl-1,3,4-oxadiazol-2-amine] | 8 (≈ 3.69 µg/mL) | 16 (≈ 7.39 µg/mL) | 0.5 (≈ 0.231 µg/mL) | 1 (≈ 0.462 µg/mL) | 2 (≈ 0.923 µg/mL) | 2 (≈ 0.923 µg/mL) | 2 (≈ 0.923 µg/mL) | < 4.30 |  |  |  |  |  |  |  | 
3 | CCCCCCCCCCCCCNc1nnc(-c2cc([N+](=O)[O-])cc([N+](=O)[O-])c2)o1 [Compound 5m, 5-(3,5-Dinitrophenyl)-N-tridecyl-1,3,4-oxadiazol-2-amine] | 8 (≈ 3.47 µg/mL) | 16 (≈ 6.94 µg/mL) | ≤ 0.03 | 0.06 (≈ 0.026 µg/mL) | 0.125 (≈ 0.0542 µg/mL) | 0.125 (≈ 0.0542 µg/mL) | 0.5 (≈ 0.217 µg/mL) | < 4.30 |  |  |  |  |  |  |  | 
4 | CCCCCCCCCCCNC(=O)NNC(=O)c1cc([N+](=O)[O-])cc([N+](=O)[O-])c1 [Compound 4k, 2-(3,5-Dinitrobenzoyl)-N-undecylhydrazine-1-carboxamide] | > 500 | > 500 | 2 (≈ 0.847 µg/mL) | 4 (≈ 1.69 µg/mL) | 4 (≈ 1.69 µg/mL) | 1 (≈ 0.423 µg/mL) | 1 (≈ 0.423 µg/mL) | > 4.00 | 4.00 |  |  |  |  |  |  | 
5 | CCCCCCCCCCCCCCNc1nnc(-c2cc([N+](=O)[O-])cc([N+](=O)[O-])c2)o1 [Compound 5n, 5-(3,5-Dinitrophenyl)-N-tetradecyl-1,3,4-oxadiazol-2-amine] | 8 (≈ 3.58 µg/mL) | 16 (≈ 7.16 µg/mL) | 0.25 (≈ 0.112 µg/mL) | 0.5 (≈ 0.224 µg/mL) | 1 (≈ 0.448 µg/mL) | 1 (≈ 0.448 µg/mL) | 1 (≈ 0.448 µg/mL) | < 4.30 |  |  |  |  |  |  |  | 
6 | CCCCCCCCCCCCCCCNC(=O)NNC(=O)c1cc([N+](=O)[O-])cc([N+](=O)[O-])c1 [Compound 4o, 2-(3,5-Dinitrobenzoyl)-N-pentadecylhydrazine-1-carboxamide] | > 500 | > 500 | 8 (≈ 3.84 µg/mL) | 8 (≈ 3.84 µg/mL) | 16 (≈ 7.67 µg/mL) | 8 (≈ 3.84 µg/mL) | 16 (≈ 7.67 µg/mL) | > 4.00 | 4.08 |  |  |  |  |  |  | 
7 | CCCCCCCCCCCNc1nnc(-c2cc([N+](=O)[O-])cc([N+](=O)[O-])c2)o1 [Compound 5k, 5-(3,5-Dinitrophenyl)-N-undecyl-1,3,4-oxadiazol-2-amine] | 4 (≈ 1.62 µg/mL) | 4 (≈ 1.62 µg/mL) | 1 (≈ 0.405 µg/mL) | 1 (≈ 0.405 µg/mL) | 1 (≈ 0.405 µg/mL) | 0.5 (≈ 0.203 µg/mL) | 1 (≈ 0.405 µg/mL) | < 4.30 |  |  |  |  |  |  |  | 
8 | NNC(=O)c1ccncc1 [INH, isoniazid, reference compound] |  |  |  |  |  | 0.5 (≈ 0.0686 µg/mL) | 0.5 (≈ 0.0686 µg/mL) |  |  | > 250 | > 250 | 4 (≈ 0.549 µg/mL) | 8 (≈ 1.1 µg/mL) | 8 (≈ 1.1 µg/mL) | < 3.00 | 
9 | CCCCCCCNC(=O)NNC(=O)c1cc([N+](=O)[O-])cc([N+](=O)[O-])c1 [Compound 4g, 2-(3,5-Dinitrobenzoyl)-N-heptylhydrazine-1-carboxamide] | 125 (≈ 45.9 µg/mL) | 250 (≈ 91.8 µg/mL) | 1 (≈ 0.367 µg/mL) | 1 (≈ 0.367 µg/mL) | 1 (≈ 0.367 µg/mL) | 0.5 (≈ 0.184 µg/mL) | 0.5 (≈ 0.184 µg/mL) | 3.93 |  |  |  |  |  |  |  | 125 to 250 (≈ 45.9 to 91.8 µg/mL)
10 | CCCCNC(=O)NNC(=O)c1cc([N+](=O)[O-])cc([N+](=O)[O-])c1 [Compound 4d, N-Butyl-2-(3,5-dinitrobenzoyl)hydrazine-1-carboxamide] | 1000 (≈ 325 µg/mL) | 1000 (≈ 325 µg/mL) | 2 (≈ 0.651 µg/mL) | 4 (≈ 1.3 µg/mL) | 4 (≈ 1.3 µg/mL) | 2 (≈ 0.651 µg/mL) | 2 (≈ 0.651 µg/mL) | 3.70 |  |  |  |  |  |  |  | 
